One may read the pIC50 as the negative decadic logarithm of the IC50, by convention in mol/L.

In patent US6277825A (priority 1999, dated 2001) one finds IC50 and T1/2 data, which are given here for eleven molecules.

pIC50: −log10 of the molar value. Where a SMILES comes first, the peptide text is derived from it. Where no end group is shown, it is not given here. [ ]: non-standard residue; d: D form. Gla = N[C@@H](CC(C(=O)O)C(=O)O)C(=O)O

The first data set deals with NMDA receptor. It is filed as binding.
Conditions: not given
Turning to “(A^7,10,14)6-17: A^7,10,14 Con G with residues 1-5 deleted (QANQALIRAKSN; ends and bridges not checked; UniProt P07231 81-97, looked up, variant E7A E10A E14A del1-5)”, the IC50 result is “inactive”. Same read-out and setting: for “(A^7,10,14)5-17: A^7,10,14 Con G with residues 1-4 deleted (LQANQALIRAKSN; ends and bridges not checked; UniProt P07231 81-97, looked up, variant E7A E10A E14A del1-4)” the value was “inactive”; for “(A^7,10,14)2-17: A^7,10,14 Con G with residue 1 deleted (EEELQANQALIRAKSN; ends and bridges not checked; UniProt P07231 81-97, looked up, variant E7A E10A E14A G1*)”, “inactive”; for “(A^7,10,14)3-17: A^7,10,14 Con G with residues 1-2 deleted (EELQANQALIRAKSN; ends and bridges not checked; UniProt P07231 81-97, looked up, variant E7A E10A E14A del1-2)”, “inactive”. Consider “(A^7,10,14)4-17: A^7,10,14 Con G with residues 1-3 deleted (ELQANQALIRAKSN; ends and bridges not checked; UniProt P07231 81-97, looked up, variant E7A E10A E14A del1-3)”, for which the IC50 entry was “inactive”.

Staying with this data set, now noted: read-out: IC50.
With `CC[C@H](C)[C@H](NC(=O)[C@H](CC(C)C)NC(=O)[C@H](CC(C(=O)O)C(=O)O)NC(=O)[C@H](CCC(N)=O)NC(=O)[C@H](CC(N)=O)NC(=O)[C@H](CC(C(=O)O)C(=O)O)NC(=O)[C@H](CCC(N)=O)NC(=O)[C@H](CC(C)C)NC(=O)[C@H](Cc1ccc(O)cc1)NC(=O)[C@H](CC(C(=O)O)C(=O)O)NC(=O)[C@H](CCC(=O)O)NC(=O)CN)C(=O)N[C@@H](CCCNC(=N)N)C(=O)N[C@@H](CC(C(=O)O)C(=O)O)C(=O)N[C@@H](CCCCN)C(=O)N[C@@H](CO)C(=O)N[C@@H](CC(N)=O)C(N)=O` [E^4] (H-GE[Gla]YLQ[Gla]NQ[Gla]LIR[Gla]KSN-NH2; N-terminus assumed), the pIC50 was at most 4.70. On the same count and under the same terms, the result for `CC[C@H](C)[C@H](NC(=O)[C@H](CC(C)C)NC(=O)[C@H](CC(C(=O)O)C(=O)O)NC(=O)[C@H](CCC(N)=O)NC(=O)[C@H](CC(N)=O)NC(=O)[C@H](CC(C(=O)O)C(=O)O)NC(=O)[C@H](CCC(N)=O)NC(=O)[C@H](CC(C)C)NC(=O)[C@H](CC(C(=O)O)C(=O)O)NC(=O)[C@H](Cc1ccc(O)cc1)NC(=O)[C@H](CCC(=O)O)NC(=O)CN)C(=O)N[C@@H](CCCNC(=N)N)C(=O)N[C@@H](CC(C(=O)O)C(=O)O)C(=O)N[C@@H](CCCCN)C(=O)N[C@@H](CO)C(=O)N[C@@H](CC(N)=O)C(N)=O` [Y^3] (H-GEY[Gla]LQ[Gla]NQ[Gla]LIR[Gla]KSN-NH2; N-terminus assumed) reads 6.02; that for `CC[C@H](C)[C@H](NC(=O)[C@H](CC(C)C)NC(=O)[C@H](Cc1ccc(O)cc1)NC(=O)[C@H](CCC(N)=O)NC(=O)[C@H](CC(N)=O)NC(=O)[C@H](C)NC(=O)[C@H](CCC(N)=O)NC(=O)[C@H](CC(C)C)NC(=O)[C@H](CC(C(=O)O)C(=O)O)NC(=O)[C@H](CC(C(=O)O)C(=O)O)NC(=O)[C@H](CCC(=O)O)NC(=O)CN)C(=O)N[C@@H](CCCNC(=N)N)C(=O)N[C@@H](CC(C(=O)O)C(=O)O)C(=O)N[C@@H](CCCCN)C(=O)N[C@@H](CO)C(=O)N[C@@H](CC(N)=O)C(N)=O` [A^7, Y^10] (H-GE[Gla][Gla]LQANQYLIR[Gla]KSN-NH2; N-terminus assumed), 7.10. As to `CC[C@H](C)[C@H](NC(=O)[C@H](CC(C)C)NC(=O)[C@H](C)NC(=O)[C@H](CCC(N)=O)NC(=O)[C@H](CC(N)=O)NC(=O)[C@H](C)NC(=O)[C@H](CCC(N)=O)NC(=O)[C@H](CC(C)C)NC(=O)[C@H](CC(C(=O)O)C(=O)O)NC(=O)[C@H](CC(C(=O)O)C(=O)O)NC(=O)[C@H](CCC(=O)O)NC(=O)CN)C(N)=O` [(A^7,10)1-12] (H-GE[Gla][Gla]LQANQALI-NH2; N-terminus assumed), the pIC50 was 6.52. Same read-out and setting: the result for `CC[C@H](C)[C@H](NC(=O)[C@H](CC(C)C)NC(=O)[C@H](C)NC(=O)[C@H](CCC(N)=O)NC(=O)[C@H](CC(N)=O)NC(=O)[C@H](C)NC(=O)[C@H](CCC(N)=O)NC(=O)[C@H](CC(C)C)NC(=O)[C@H](CC(C(=O)O)C(=O)O)NC(=O)[C@H](CC(C(=O)O)C(=O)O)NC(=O)[C@H](CCC(=O)O)NC(=O)CN)C(=O)N[C@@H](CCCNC(=N)N)C(N)=O` [(A^7,10)1-13] (H-GE[Gla][Gla]LQANQALIR-NH2; N-terminus assumed) reads 6.60.

System in another data set: not given
The settings on record: Frings audiogenic, mouse, tissue homogenate.
In the case of `CC[C@H](C)[C@H](NC(=O)[C@H](CC(N)=O)NC(=O)[C@H](CCC(=O)O)NC(=O)[C@H](CCCNC(=N)N)NC(=O)[C@H](C)NC(=O)[C@H](CC(C)C)NC(=O)[C@H](CCC(=O)O)NC(=O)[C@H](C)NC(=O)[C@H](C)NC(=O)[C@H](CCSC)NC(=O)[C@H](CCCCN)NC(=O)[C@H](C)NC(=O)[C@@H](NC(=O)[C@H](CCC(=O)O)NC(=O)[C@H](CCC(=O)O)NC(=O)[C@H](CCC(=O)O)NC(=O)CN)C(C)C)C(=O)N[C@@H](C)C(=O)N[C@@H](CCCCN)C(=O)NCC(=O)N[C@H]1CSSC[C@@H](C(=O)N[C@@H](Cc2ccc(O)cc2)C(=O)N2CCC[C@H]2C(=O)O)NC(=O)[C@H](CC(N)=O)NC(=O)[C@H](C(C)C)NC(=O)[C@H](CCCCN)NC1=O` [ECon R], the T1/2 is listed as 2.4 min.
